In US11702422B2, “Imidazopyridazines as modulators of IL-17” (Janssen Pharmaceutica NV, priority 2020, dated 2023) one finds IC50 data, which are given here for 14 compounds.

Structures can show the parent of a compound that is named as a salt.

For assay [1], the system named is IL-17A-induced G-CSF production in human normal keratinocyte (NHK). The assay is described as follows: NHK Assay: IL-17A-induced G-CSF production in human normal keratinocytes. It is filed as cell-based. The following applies: Homo sapiens, Keratinocyte, 24 h, adult normal human keratinocytes, IL-17A 5 ng/mL, simple average if tested more than once. As for the experimental part:
IL-17A acts directly on keratinocytes through binding to dimeric receptor IL-17RA/RC and drives the production of a number of inflammatory mediators known to be elevated in psoriasis lesional tissue. IL-17A small molecule inhibitors that block the IL-17A to interact with IL-17R would inhibit the IL-17A signaling in its targeted cells such as keratinocytes. The compound functional activity is evaluated for its impact on IL-17A-induced G-CSF production in human normal keratinocyte (NHK).
Adult normal human keratinocytes are cultured in keratinocyte growth medium (Lonza) in a flask till reaching ˜ 90% confluence, then cells are transferred to a 384-well plate at density of 3000-4000 cell/well. Recombinant human IL-17A (Gibco PHC9174) is pre-incubated with titrated compound or DMSO for 1 h at rt then added to the cell culture plate. The final concentration of IL-17A is 5 ng/mL and DMSO is 0.2%, in the culture containing 5% FBS. Cells are cultured/treated for 24 h at 37° C. Supernatants are collected and G-CSF production is measured through HTRF technology using Human G-CSF Kit (CisBio). G-CSF concentration was extrapolated from the standard curve and IC50 is determined using GraphPad Prism. Cell viability is also evaluated using CellTiter-Glo kit (Promega) and effect of compound on cell viability is compared to DMSO control.

Assay [2] deals with IL-17A(FLAG-Tagged): IL-17RA(His-Tagged) (Homo sapiens, UniProt Q16552, K93Q). The assay is described as follows: IL-17A(FLAG-Tagged): IL-17RA(His-Tagged) Binding Disruption Eu-HTRF Assay. The following applies: IL-17A/IL-17RA binding disruption, simple average if tested more than once. An excerpt: IL-17A(FLAG-Tagged): IL-17RA(His-Tagged) Binding Disruption Eu-HTRF Assay
An antibody directed against the FLAG tag of IL-17A (SEQ ID NO:1) is labeled with the HTRF donor chromophore (Europium-cryptate). IL-17A is present as a dimer that is “locked into” this quaternary structure due to the formation of loop-spanning […] disulfide bridges. The construct of IL-17RA used in the assay excludes the […] portion of the receptor and is fused to a C-terminal 10×His tag (SEQ ID NO:2). An antibody directed against the His tag of the IL-17RA chimera is labeled with the HTRF acceptor chromophore (“D2”). The fluorescence-resonance energy transfer (FRET) depends on the vicinity of the donor chromophore to the acceptor, and interruption of the binding between the IL-17A and IL-17RA causes the reduction/loss of FRET. Therefore, this assay allows to evaluate the compound effect on the binding IL-17A and IL-17RA by monitoring the fluorescence intensity of donor vs acceptor. The assay is run as described below.
40 nl of 2-fold serial diluted compound solution for total 22 dilution points is added into each well of a 1536-well, white, low-volume, non-binding plate (Greiner #782904), then 2 μl of FLAG tagged IL-17A at 2× final concentration (2.5 nM) in solution of PBS+0.01% Triton-X100 is added to each well. The assay plate is briefly centrifuged then incubated for 1 h at rt. A mixed solution is prepared containing 2×5 nM 10HIS×IL-17RA, 2×2.5 nM Eu-anti-FLAG (CISBIO), 2×5 nM D2-anti-HIS (CISBIO) in PBS+0.01% Triton-X100+200 mM Potassium Fluoride (Sigma 60238) and 2 μl of mix is added to each well of the assay plate. The plate is briefly centrifuged then incubated for 2 h at rt. The HTRF intensities at the wavelength of donor (620 nm) and acceptor (665 nm) are measured using BMG Pherastar. The ratio between intensities at two wavelengths is calculated and plotted against the compound concentration and the data is fitted to a one-site competition model to yield IC50 of the compound.
In general terms: Time-resolved FRET reads energy transfer from a long-lived donor to a nearby acceptor.

Chain of UniProt Q16552 (Q16552 with tags, fused parts or gaps K93Q): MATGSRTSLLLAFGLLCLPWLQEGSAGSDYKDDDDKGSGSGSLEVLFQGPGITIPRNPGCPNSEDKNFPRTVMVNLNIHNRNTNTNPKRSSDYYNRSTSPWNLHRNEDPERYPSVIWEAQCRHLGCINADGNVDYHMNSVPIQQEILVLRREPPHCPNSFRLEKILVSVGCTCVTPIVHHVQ

A word on the IC50: it is the midpoint of a concentration-inhibition curve. In the case of `O=C(N[C@H](c1cn2ncc(CNC(=O)[C@@H]3NCCC[C@H]3C(F)(F)F)cc2n1)C1CCCCC1)c1ccccc1` (relative stereo) [Example 1, (Trans-2R*,3R*)—N-((2-((S)-benzamido(cyclohexyl)methyl)imidazo[1,2-b]pyridazin-7-yl)methyl)-3-(trifluoromethyl)piperidine-2-carboxamide hydrochloride], the IC50 stood at 300 nM in assay [1] and 180 nM in assay [2].
For `O=C(N[C@H](c1cn2ncc(CNC(=O)[C@H]3NCCC[C@@H]3C(F)(F)F)cc2n1)C1CCCCC1)c1ccccc1` (relative stereo) [Example 2, (Trans-2S*,3S*)—N-((2-((S)-benzamido(cyclohexyl)methyl)imidazo[1,2-b]pyridazin-7-yl)methyl)-3-(trifluoromethyl)piperidine-2-carboxamide hydrochloride] the same measures were greater than 20000 nM and 7600 nM.
For `Cn1nccc1C(=O)N[C@H](c1cn2ncc(CNC(=O)[C@@H]3NCCC[C@H]3C(F)(F)F)cc2n1)C1CCCCC1` (relative stereo) [Example 3, (Trans-2R*,3R*)—N-((2-((S)-cyclohexyl(1-methyl-1H-pyrazole-5-carboxamido)methyl)imidazo[1,2-b]pyridazin-7-yl)methyl)-3-(trifluoromethyl)piperidine-2-carboxamide hydrochloride] the same measures were 300 nM and 97 nM.
On to `O=C(N[C@H](c1cn2ncc([C@H](NC(=O)[C@@H](O)CC(F)(F)F)C3CC3)cc2n1)C1CCC(F)(F)CC1)c1cnn(CC(F)(F)F)n1` (relative stereo) [Example 31, N—((S)-(7-((R*)-Cyclopropyl((S*)-4,4,4-trifluoro-2-hydroxybutanamido)methyl)imidazo[1,2-b]pyridazin-2-yl)(4,4-difluorocyclohexyl)methyl)-2-(2,2,2-trifluoroethyl)-2H-1,2,3-triazole-4-carboxamide], for which the IC50 in assay [1] turned out to be 1300 nM; in assay [2] it was 360 nM.
`CC(C)n1nccc1C(=O)N[C@H](c1cn2ncc([C@H](NC(=O)C[C@@H](O)C(F)(F)F)C3CC3)cc2n1)C1CCC(F)(F)CC1` (relative stereo) [Example 130, N—((S)-(7-((R*)-Cyclopropyl((R*)-4,4,4-trifluoro-3-hydroxybutanamido)methyl)imidazo[1,2-b]pyridazin-2-yl)(4,4-difluorocyclohexyl)methyl)-1-isopropyl-1H-pyrazole-5-carboxamide]: the half-maximal inhibitory concentration (IC50) in assay [1] worked out at 390 nM; in assay [2], 270 nM.
For `CC(C)n1nccc1C(=O)N[C@H](c1cn2ncc([C@H](NC(=O)C[C@H](O)C(F)(F)F)C3CC3)cc2n1)C1CCC(F)(F)CC1` (relative stereo) [Example 131, N—((S)-(7-((R*)-Cyclopropyl((S*)-4,4,4-trifluoro-3-hydroxybutanamido)methyl)imidazo[1,2-b]pyridazin-2-yl)(4,4-difluorocyclohexyl)methyl)-1-isopropyl-1H-pyrazole-5-carboxamide], in that order: 100 nM and 87 nM.
On to `CC(C)n1nccc1C(=O)N[C@H](c1cn2ncc([C@H](NC(=O)C[C@@](C)(O)C(F)(F)F)C3CC3)cc2n1)C1CCC(F)(F)CC1` (relative stereo) [Example 132, N—((S)-(7-((R*)-Cyclopropyl((R*)-4,4,4-trifluoro-3-hydroxy-3-methylbutanamido)methyl)imidazo[1,2-b]pyridazin-2-yl)(4,4-difluorocyclohexyl)methyl)-1-isopropyl-1H-pyrazole-5-carboxamide], for which the IC50 stood at 260 nM in assay [1] and 220 nM in assay [2].
Consider `CC(C)n1nccc1C(=O)N[C@H](c1cn2ncc([C@H](NC(=O)C[C@](C)(O)C(F)(F)F)C3CC3)cc2n1)C1CCC(F)(F)CC1` (relative stereo) [Example 133, N—((S)-(7-((R*)-Cyclopropyl((S*)-4,4,4-trifluoro-3-hydroxy-3-methylbutanamido)methyl)imidazo[1,2-b]pyridazin-2-yl)(4,4-difluorocyclohexyl)methyl)-1-isopropyl-1H-pyrazole-5-carboxamide], for which the IC50 in assay [1] was found to be 360 nM; in assay [2], 150 nM.
`O=C(CC1CC(F)(F)C1)N[C@@H](c1cnn2cc([C@@H](NC(=O)[C@H]3C[C@@H]3C(F)(F)F)C3CCC(F)(F)CC3)nc2c1)C1CC1` (relative stereo) [Example 143, (Trans-1S*,2S*)—N—((S)-(7-((R)-Cyclopropyl(2-(3,3-difluorocyclobutyl)acetamido)methyl)imidazo[1,2-b]pyridazin-2-yl)(4,4-difluorocyclohexyl)methyl)-2-(trifluoromethyl)cyclopropane-1-carboxamide]: the IC50 in assay [1] was 450 nM; in assay [2], 130 nM.
For `O=C(CC1CC(F)(F)C1)N[C@@H](c1cnn2cc([C@@H](NC(=O)[C@@H]3C[C@H]3C(F)(F)F)C3CCC(F)(F)CC3)nc2c1)C1CC1` (relative stereo) [Example 144, (Trans-1R*,2R*)—N—((S)-(7-((R)-Cyclopropyl(2-(3,3-difluorocyclobutyl)acetamido)methyl)imidazo[1,2-b]pyridazin-2-yl)(4,4-difluorocyclohexyl)methyl)-2-(trifluoromethyl)cyclopropane-1-carboxamide], in that order: 7000 nM and 1400 nM.
Turning to `O=C(CCC(F)(F)F)N[C@@H](c1cnn2cc([C@@H](NC(=O)[C@H]3C[C@@H]3C(F)(F)F)C3CCC(F)(F)CC3)nc2c1)C1CC1` (relative stereo) [Example 149, (Trans-1S*,2S*)—N—((S)-(7-((R)-Cyclopropyl(4,4,4-trifluorobutanamido)methyl)imidazo[1,2-b]pyridazin-2-yl)(4,4-difluorocyclohexyl)methyl)-2-(trifluoromethyl)cyclopropane-1-carboxamide], the IC50 in assay [1] was 510 nM; in assay [2], 240 nM.
For `O=C(CCC(F)(F)F)N[C@@H](c1cnn2cc([C@@H](NC(=O)[C@@H]3C[C@H]3C(F)(F)F)C3CCC(F)(F)CC3)nc2c1)C1CC1` (relative stereo) [Example 150, (Trans-1R*, 2R*)—N—((S)-(7-((R)-Cyclopropyl(4,4,4-trifluorobutanamido)methyl)imidazo[1,2-b]pyridazin-2-yl)(4,4-difluorocyclohexyl)methyl)-2-(trifluoromethyl)cyclopropane-1-carboxamide] the same measures were greater than 20000 nM and 1300 nM.
`C[C@H](CC(=O)N[C@@H](c1cnn2cc([C@@H](NC(=O)[C@@H]3C[C@H]3C(F)(F)F)C3CCC(F)(F)CC3)nc2c1)C1CC1)C(F)(F)F` (relative stereo) [Example 241, (trans-1R*,2R*)—N—((S)-(7-((R)-Cyclopropyl((R*)-4,4,4-trifluoro-3-methylbutanamido)methyl)imidazo[1,2-b]pyridazin-2-yl)(4,4-difluorocyclohexyl)methyl)-2-(trifluoromethyl)cyclopropane-1-carboxamide]: the IC50 in assay [1] was greater than 20000 nM; in assay [2], 3400 nM.
`C[C@@H](CC(=O)N[C@@H](c1cnn2cc([C@@H](NC(=O)[C@@H]3C[C@H]3C(F)(F)F)C3CCC(F)(F)CC3)nc2c1)C1CC1)C(F)(F)F` (relative stereo) [Example 242, (trans-1R*,2R*)—N—((S)-(7-((R)-Cyclopropyl((S*)-4,4,4-trifluoro-3-methylbutanamido)methyl)imidazo[1,2-b]pyridazin-2-yl)(4,4-difluorocyclohexyl)methyl)-2-(trifluoromethyl)cyclopropane-1-carboxamide]: the IC50 worked out at 790 nM in assay [1] and 1300 nM in assay [2].
